Holding throughout (assay type): in vivo
Data set [1] has as its system Diamond Back Moth (Plutella xylostella). The experiment in a line: Test Example 1: insecticidal effect on diamond back moth, immersion of Chinese cabbage seedling bearing eggs. The note with it: seedling with eggs immersed about 30 seconds, counted six days after immersion, 25° C.; for mortality at 5 ppm / mortality at 50 ppm: Plutella xylostella, 144 h, read-out: Test Example 1 insecticidal effect (mortality criterion). The text has this:
Insecticidal Effect on Diamond Back Moth (Plutella xylostella)
Adult diamond back moths were released and allowed to oviposit on a Chinese cabbage seedling. Two days after the release, the seedling having the eggs deposited thereon was immersed for about 30 seconds in a liquid chemical prepared by diluting a preparation containing each compound listed in Table 1 or 2 as an active ingredient to adjust the prescribed concentration. After air-dryness, it was allowed to stand in a room thermostatted at 25° C. Six days after the immersion, the hatched insects were counted. The mortality was calculated according to the following equation and the insecticidal effect was judged according to the criterion shown below. The test was carried out with triplicate groups of 10 insects. [formula]
The compounds described in JP-A-2001-131141 were used as comparative compounds as follows: […]

In data set [2] the test system is Common Cutworm (Spodoptera litura). As to the kind of experiment: Test Example 2: insecticidal effect on common cutworm, cabbage leaf dip, second-instar larvae. To be noted: cabbage leaf immersed about 30 seconds, counted eight days after inoculation, 25° C.; for mortality at 5 ppm / mortality at 50 ppm: Spodoptera litura, foliar, 192 h, read-out: Test Example 2 insecticidal effect (mortality criterion). The text has this:
Insecticidal Effect on Common Cutworm (Spodoptera litura)
A piece of cabbage leaf (cultivar; Shikidori) was immersed for about 30 seconds in a liquid chemical prepared by diluting a preparation containing each compound listed in Table 1 or 2 as an active ingredient to adjust the prescribed concentration. After air-dryness, it was placed in a plastic Petri dish with a diameter of 9 cm and inoculated with second-instar larvae of common cutworm, after which the dish was closed and then allowed to stand in a room thermostatted at 25° C. Eight days after the inoculation, the dead and alive were counted. The mortality was calculated according to the following equation and the insecticidal effect was judged according to the criterion shown in Test Example 1. The test was carried out with triplicate groups of 10 insects. [formula]

Data set [3] deals with diamondback moth (Plutella xylostella). As to the kind of experiment: Test Example 3: controlling effect on diamondback moth by soil treatment for cabbage (planting-hole granules). To be noted: 20 mgAI/plant granules in planting hole; for Number of parasites/3 plants After 18 days: 18 days after trans-planting; for Number of parasites/3 plants After 25 days: 25 days after trans-planting; for Number of parasites/3 plants After 32 days: 32 days after trans-planting; for Number of parasites/3 plants After 42 days: 42 days after trans-planting. Here is the method: Controlling effect on diamondback moth (Plutella xylostella) by soil treatment for cabbage At the time of trans-planting cabbage plants (cultivar: YR Seitoku), planting holes were treated with granules prepared from the compound listed in Table 1 or 2 according to Formulation Example. Diamondback moths parasitic on the cabbage plants were counted on predetermined days after the trans-planting. In Table 4, mgAI/plant denotes the dosage (mg) of the active ingredient per plant.

Molecules are shown by their SMILES.

As to `Cc1cc(I)ccc1NC(=O)c1cccc(I)c1C(=O)NC(C)(C)C[S+](C)[O-]` (stereo not shown) [compound 31, N^2-(1,1-dimethyl-2-methylsulfinylethyl)-3-iodo-N^1-(4-iodo-2-methylphenyl)phthalamide], the mortality (as a rule, the percentage killed) at 5 ppm is 100% in data set [1] (5 ppm) and 0 to 49% in data set [2]. Moreover, the mortality at 50 ppm in data set [1] (50 ppm) and in data set [2] (50 ppm) was 100% in each case.
Turning to `CC(C)(CS(C)(=O)=O)NC(=O)c1c(I)cccc1C(=O)Nc1ccc(Cl)cc1Cl` [compound 101], the “Test Example 1 insecticidal effect (mortality criterion)” value in data set [1] (5 ppm) and in data set [1] (50 ppm) was “A (Mortality 100%)” throughout.
In the case of `Cc1cc(I)ccc1NC(=O)c1cccc(I)c1C(=O)NC(C)(C)CS(C)(=O)=O` [compound 32, N^2-(1,1-dimethyl-2-methylsulfonylethyl)-3-iodo-N^1-(4-iodo-2-methylphenyl)phthalamide], the mortality at 5 ppm was 100% in data set [1] (5 ppm) and 0 to 49% in data set [2]. The mortality at 50 ppm in data set [1] (50 ppm) and in data set [2] (50 ppm) was 100% in each case.
In the case of `CSCC(C)(C)NC(=O)c1c(I)cccc1C(=O)Nc1ccc(Cl)c(C(F)(F)F)c1Cl` [compound 142], the “Test Example 1 insecticidal effect (mortality criterion)” value in data set [1] (50 ppm) is “A (Mortality 100%)”. For the same compound, the “Test Example 2 insecticidal effect (mortality criterion)” value in data set [2] (50 ppm) is on record as “A (Mortality 100%)”.
As to `Cc1cc(Br)ccc1NC(=O)c1cccc(I)c1C(=O)NC(C)(C)C[S+](C)[O-]` (stereo not shown) [compound 28], in data set [3], the “Number of parasites/3 plants After 18 days” value was 0 parasites/3 plants, the “Number of parasites/3 plants After 25 days” value is 7 parasites/3 plants, the “Number of parasites/3 plants After 32 days” value is listed as 23 parasites/3 plants and the “Number of parasites/3 plants After 42 days” value came to 59 parasites/3 plants.
As to `CSCC(C)(C)NC(=O)c1c(I)cccc1C(=O)Nc1ccc(I)cc1C` [compound 30, N^2-(1,1-dimethyl-2-methylthioethyl)-3-iodo-N^1-(4-iodo-2-methylphenyl)phthalamide], in data set [1] (5 ppm), the mortality at 5 ppm stood at 100%. For the same compound, the mortality at 50 ppm in data set [1] (50 ppm) worked out at 100%. For the same compound, the mortality at 5 ppm in data set [2] was 0 to 49%. Also, the mortality at 50 ppm in data set [2] (50 ppm) stood at 100%. Besides, in data set [3], the “Number of parasites/3 plants After 18 days” value is reported as 0 parasites/3 plants, the “Number of parasites/3 plants After 25 days” value was found to be 9 parasites/3 plants, the “Number of parasites/3 plants After 32 days” value was 19 parasites/3 plants and the “Number of parasites/3 plants After 42 days” value was 37 parasites/3 plants.
As to `CCSCC(C)NC(=O)c1cccc(I)c1C(=O)Nc1ccc(Cl)cc1C` (stereo not shown) [B, N^2-(4-chloro-2-methylphenyl) -3-iodo-N^1-(2-ethylthio-1-methylethyl)phthalamide, reference compound], the mortality at 5 ppm in data set [1] (5 ppm) and in data set [2] was 0 to 49% in each case. Moreover, the results for the mortality at 50 ppm in data set [1] (50 ppm) and in data set [2] (50 ppm) were 100% and 0 to 49%, respectively.
As to `Cc1cc(Cl)ccc1NC(=O)c1cccc(I)c1C(=O)NC(C)(C)C[S+](C)[O-]` (stereo not shown) [compound 25], in data set [3], the “Number of parasites/3 plants After 18 days” value is recorded as 0 parasites/3 plants, the “Number of parasites/3 plants After 25 days” value is 0 parasites/3 plants, the “Number of parasites/3 plants After 32 days” value came to 6 parasites/3 plants and the “Number of parasites/3 plants After 42 days” value came out at 22 parasites/3 plants.
Turning to `CSCC(C)NC(=O)c1cccc(I)c1C(=O)Nc1ccc(Cl)cc1C` (stereo not shown) [A, N^2-(4-chloro-2-methylphenyl)-3-iodo-N^1-(1-methyl-2-methylthioethyl)phthalamide, reference compound], the mortality at 5 ppm in data set [1] (5 ppm) lay in the range of 0 to 49%. In addition, the mortality at 50 ppm in data set [1] (50 ppm) is 100%. Also, in data set [2], the mortality at 5 ppm was 0 to 49%. Besides, the mortality at 50 ppm in data set [2] (50 ppm) fell in the range of 0 to 49%. In data set [3], the “Number of parasites/3 plants After 18 days” value is 8 parasites/3 plants, the “Number of parasites/3 plants After 25 days” value is 75 parasites/3 plants, the “Number of parasites/3 plants After 32 days” value is given as 143 parasites/3 plants and the “Number of parasites/3 plants After 42 days” value worked out at 146 parasites/3 plants.

For the origin of these results see patent US20040116299A1, “Phthalamide derivates, insecticides for agricultural and horticultural use and method for application thereof” (priority 2001, published 2004).
